Twelve compounds from patent US8648066B2 (Exelixis, Inc., priority 2009, dated 2014) can be followed below.

pIC50: −log10 of the molar value.

The assay deals with mTOR/GbL/Raptor (mTORC1) (Homo sapiens, UniProt P42345). Nature of the assay: mTOR/GbL/Raptor (mTORC1) ELISA assay. It is filed as biochemical. Particulars: phosphorylation of 4E-BP1; 0.2 nM mTORC1, 10 μM ATP; read-out: IC50 in this assay (mTORC1 ELISA). In outline: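 ELISA read-out: phospho-4E-BP1 captured on Ni-chelate plates and detected with anti-phospho antibody plus HRP-anti-IgG luminescence. The kinase step ran 120 min at ambient temperature with 0.2 nM human mTORC1, 10 µM ATP, 50 nM His-4E-BP1, 10 mM MnCl2, pH 7.2 HEPES.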
On the technique in general: In an ELISA, binding on a coated surface is turned into a signal by an enzyme label.
In general, pIC50 refers to −log10 of the IC50, conventionally taken in molar units. For `CCNc1nc2ccc(-c3ccc4c(c3)CN(c3nc(CC)nc5cc(OC)ccc35)CCO4)cc2[nH]1` [Example 279, N-ethyl-6-{4-[2-ethyl-7-(methyloxy)quinazolin-4-yl]-2,3,4,5-tetrahydro-1,4-benzoxazepin-7-yl}-1H-benzimidazol-2-amine], the pIC50 is 6.00 to 6.60.

As to `COc1ccc2c(N3CCOc4ccc(-c5ccc6nc[nH]c6c5)cc4C3)nc(C)nc2c1` [Example 280, 7-(1H-benzimidazol-6-yl)-4-[2-methyl-7-(methyloxy)quinoazolin-4-yl]-2,3,4,5-tetrahydro-1,4-benzoxazepine], the pIC50 is 6.00 to 6.60.

Turning to `CCNc1nc2ccc(-c3ccc4c(c3)CN(c3ncnc5cc(F)ccc35)CCO4)cc2[nH]1` [Example 281, N-ethyl-6-[4-(7-fluoroquinazolin-4-yl)-2,3,4,5-tetrahydro-1,4-benzoxazepin-7-yl]-1H-benzimidazol-2-amine], the pIC50 is 6.60 to 7.30.

As for `CCNc1nc2ccc(-c3ccc4c(c3)CN(c3ccnc5c(F)cccc35)CCO4)cc2[nH]1` [Example 282, N-ethyl-6-[4-(8-fluoroquinolin-4-yl)-2,3,4,5-tetrahydro-1,4-benzoxazepin-7-yl]-1H-benzimidazol-2-amine], the pIC50 was 6.60 to 7.30.

In the case of `CCNc1nc2ccc(-c3ccc4c(c3)CN(c3ccnc5ccc(F)cc35)CCO4)cc2[nH]1` [Example 283, N-ethyl-6-[4-(6-fluoroquinolin-4-yl)-2,3,4,5-tetrahydro-1,4-benzoxazepin-7-yl]-1H-benzimidazol-2-amine], the pIC50 is 6.60 to 7.30.

For the compound `CCNc1nc2ccc(-c3ccc4c(c3)CN(c3cc(Nc5cccc(OC)c5)ncn3)CCO4)cc2[nH]1` [Example 284, N-ethyl-6-[4-(6-{[3-(methyloxy)phenyl]amino}pyrimidin-4-yl)-2,3,4,5-tetrahydro-1,4-benzoxazepin-7-yl]-1H-benzimidazol-2-amine], the pIC50 is 6.00 to 6.60.

With `COc1ccc2c(N3CCOc4ccc(-c5cnc(N)nc5)cc4C3)nc(C)nc2c1` [Example 286, 5-{4-[2-methyl-7-(methyloxy)quinazolin-4-yl]-2,3,4,5-tetrahydro-1,4-benzoxazepin-7-yl}pyrimidin-2-amine], the pIC50 is at most 5.70.

In the case of `CCNc1nc2ccc(-c3ccc4c(c3)CN(c3ncnc(Nc5ccccc5)c3C)CCO4)cc2[nH]1` [Example 287, N-ethyl-6-{4-[5-methyl-6-(phenylamino)pyrimidin-4-yl]-2,3,4,5-tetrahydro-1,4-benzoxazepin-7-yl}-1H-benzimidazol-2-amine], the pIC50 is 6.60 to 7.30.

As to `COc1ccc2c(N3CCOc4ccc(-c5cnc6nc(N)[nH]c6c5)cc4C3)nc(C)nc2c1` [Example 289, 6-{4-[2-methyl-7-(methyloxy)quinazolin-4-yl]-2,3,4,5-tetrahydro-1,4-benzoxazepin-7-yl}-1H-imidazo[4,5-b]pyridin-2-amine], the negative logarithm of the IC50 (pIC50) was 7.30 to 8.00.

As to `CCNc1nc2ncc(-c3ccc4c(c3)CN(c3nc(C)nc5c3CC(C)(C)CC5)CCO4)cc2[nH]1` [Example 290, N-ethyl-6-[4-(2,6,6-trimethyl-5,6,7,8-tetrahydroquinazolin-4-yl)-2,3,4,5-tetrahydro-1,4-benzoxazepin-7-yl]-1H-imidazo[4,5-b]pyridin-2-amine], the pIC50 was at least 8.00.

On to `CCNc1nc2ccc(-c3ccc4c(c3)CN(c3ccnc5cc(OC)ccc35)CCO4)cc2[nH]1` [Example 291, N-ethyl-6-{4-[7-(methyloxy)quinolin-4-yl]-2,3,4,5-tetrahydro-1,4-benzoxazepin-7-yl}-1H-benzimidazol-2-amine], for which the pIC50 is 7.30 to 8.00.

As for `COc1ccc2c(N3CCOc4ccc(-c5cnc(N)s5)cc4C3)nc(C)nc2c1` [Example 292, 5-{4-[2-methyl-7-(methyloxy)quinazolin-4-yl]-2,3,4,5-tetrahydro-1,4-benzoxazepin-7-yl}-1,3-thiazol-2-amine], the pIC50 was 6.60 to 7.30.
